The supplement of paper PMC10307832

Experiments:
Test in all cases: relative viability (nuclei count vs DMSO), 5 days (fraction); higher = more cells survive
[1] = compound: C1=CC2=NC=CN=C2C=C1/C=C/3\C(=O)NC(=O)S3 + COc1cc2c(Oc3ccc(NC(=O)C4(C(=O)Nc5ccc(F)cc5)CC4)cc3F)ccnc2cc1OCCCN1CCOCC1 [Foretinib] (partner 0.25 µM)
How it was run: (§1)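 Cells from lung cancer lines were seeded into 1536-well plates and, one day later, dosed by pin tool. Treatments were either a single drug or a fixed dose of an anchor drug with five library-drug doses (not always all listed) in √10 steps. After 5 days, nuclei were stained in a one-step fixation (final 0.05% Triton X-100, 1% formaldehyde, 1 ug/ml Hoechst) and counted on 4× images, and relative viability is the treated-to-vehicle nuclei ratio, as the median of duplicate plates.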

[2] = compound: C1=CC2=NC=CN=C2C=C1/C=C/3\C(=O)NC(=O)S3 + CS(=O)(=O)CCNCc1ccc(-c2ccc3ncnc(Nc4ccc(OCc5cccc(F)c5)c(Cl)c4)c3c2)o1 [Lapatinib] (partner 2 µM)
How it was run: as §1

BGJ398 + Dasatinib = compound: CCN1CCN(c2ccc(Nc3cc(N(C)C(=O)Nc4c(Cl)c(OC)cc(OC)c4Cl)ncn3)cc2)CC1 [BGJ398] + Cc1nc(Nc2ncc(C(=O)Nc3c(C)cccc3Cl)s2)cc(N2CCN(CCO)CC2)n1 [Dasatinib] (partner 0.075 µM)
How it was run: as §1

BGJ398 + Olaparib = compound: CCN1CCN(c2ccc(Nc3cc(N(C)C(=O)Nc4c(Cl)c(OC)cc(OC)c4Cl)ncn3)cc2)CC1 [BGJ398] + O=C(c1cc(Cc2n[nH]c(=O)c3ccccc23)ccc1F)N1CCN(C(=O)C2CC2)CC1 [Olaparib] (partner 8 µM)
How it was run: as §1

UMC-11
relative viability ([1]; first compound 0.02 µM): 1.03 | relative viability ([1]; first compound 0.06325 µM): 1.03 | relative viability ([1]; first compound 0.2 µM): 1.09 | relative viability ([1]; first compound 0.6325 µM): 0.964 | relative viability ([1]; first compound 2 µM): 1.11 | relative viability ([2]; first compound 0.02 µM): 1.02 | relative viability ([2]; first compound 0.06325 µM): 1.15 | relative viability ([2]; first compound 0.2 µM): 1.19 | relative viability ([2]; first compound 0.6325 µM): 1.02 | relative viability ([2]; first compound 2 µM): 1.37 | relative viability (BGJ398 + Dasatinib; first compound 0.01 µM): 0.463 | relative viability (BGJ398 + Dasatinib; first compound 0.03162 µM): 0.465 | relative viability (BGJ398 + Dasatinib; first compound 0.1 µM): 0.51 | relative viability (BGJ398 + Dasatinib; first compound 0.3162 µM): 0.454 | relative viability (BGJ398 + Dasatinib; first compound 1 µM): 0.443 | relative viability (BGJ398 + Olaparib; first compound 0.01 µM): 0.316 | relative viability (BGJ398 + Olaparib; first compound 0.03162 µM): 0.447 | relative viability (BGJ398 + Olaparib; first compound 0.1 µM): 0.376 | relative viability (BGJ398 + Olaparib; first compound 0.3162 µM): 0.367 | relative viability (BGJ398 + Olaparib; first compound 1 µM): 0.342
